[ ]: non-standard residue; d: D form. Aib = CC(C)(N)C(=O)O
How the values were obtained:
primary human T-cells = experiment: Cytokine secretion on protein level in activated primary human T-cells (13-plex FACS / Luminex, supernatant); assay type: cell-based; conditions: for IL-1 cytokine concentration / IL-2 cytokine concentration / IL-4 cytokine concentration / IL-5 cytokine concentration / IL-6 cytokine concentration / IL-9 cytokine concentration / IL-10 cytokine concentration / IL-12p70 cytokine concentration / IL-13 cytokine concentration / IL-17 cytokine concentration / IL-22 cytokine concentration / TNF-α cytokine concentration / INF-α cytokine concentration: substance 10^−9M
In short: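 PMA/Ionomycin- or IFN-γ-activated cells (48 h) treated with tripeptides; supernatant 13-plex FACS at 48 h and 72 h post-stimulation. Luminex run: PMA/Ionomycin plus compound at 10^−7, 10^−9, 10^−11 M; IFN-γ, IL-17, IL-10 for T cells, IFN-γ for HaCaT.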

C57BL/6 mice = experiment: Vasculitis model in mice (LPS / TNF-α intradermal); assay type: in vivo; conditions: s.c.
Protocol: C57BL/6 mice receive an intradermal injection of LPS. On the following day vasculitis is induced by intradermal injection of TNF-α. In addition Evan's blue is injected. 24 hours following the injection of TNF-α mice are scarified. Ear thickness is measured and the degree of vasculitis is assessed by counting petechiae. The content of Evan's blue in the ear tissue is a marker for vascular permeability. Ears are analyzed by histology, FACS and RT-qPCR. […] In histology a reduced inflammatory infiltrate was seen.

Balb/c mice = experiment: Imiquimod-induced psoriasis in mice; assay type: in vivo; conditions: i.v.
Protocol: Psoriasis in Balb/c mice is induced by daily application of topical Imiquimod for 8 days. Animal are treated with the test items (topical or systemically). On day 9 the skin phenotype is characterized using a clinical score system (0=normal mouse skin; 1=mild reddening; 2=erythema; 3=erythema, swelling; 4=erythema, swelling, scaling; 5=erythema, swelling, scaling, (bloody) lesions). Skin is analyzed histologically. Lymph nodes are analyzed by flow cytometry and RT-qPCR. mRNA expression in lesional skin is analyzed by RT-qPCR. Cytokine concentrations in the serum are assessed using the Luminex technology.

[1] = primary human T-cells stimulated with IFN-γ
[2] = primary human T-cells stimulated with PBS
[3] = primary human T-cells stimulated with PMA/Ionomycin

Question: With H-Phe-Pro-[Aib]-OH [Example 13] as the substance, how does the “secretion / expression of pro-inflammatory cytokines (supernatant)” value (primary human T-cells; activated primary human T-cells) read?
Answer: decreased expression

Question: And the “immunomodulatory activity relative to MMF” value (primary human T-cells; cells activated with PMA/Ionomycin and IFN-γ, protein and gene level)?
Answer: higher

Question: And the IL-1 cytokine concentration (primary human T-cells; [1])?
Answer: 162.75 pg/mL

Question: What about the IL-2 cytokine concentration (primary human T-cells; [1]) of the same substance?
Answer: 187.16 pg/mL

Question: And the IL-4 cytokine concentration (primary human T-cells; [1])?
Answer: 0 pg/mL

Question: What about the IL-5 cytokine concentration (primary human T-cells; [1]) of the same substance?
Answer: 15.32 pg/mL

Question: What about the IL-6 cytokine concentration (primary human T-cells; [1]) of the same substance?
Answer: 60.51 pg/mL

Question: And the IL-9 cytokine concentration (primary human T-cells; [1])?
Answer: 0 pg/mL

Question: And the IL-10 cytokine concentration (primary human T-cells; [1])?
Answer: 0 pg/mL

Question: And the IL-12p70 cytokine concentration (primary human T-cells; [1])?
Answer: 0 pg/mL

Question: What about the IL-13 cytokine concentration (primary human T-cells; [1]) of the same substance?
Answer: 0 pg/mL

Question: And the IL-17 cytokine concentration (primary human T-cells; [1])?
Answer: 81.59 pg/mL

Question: What about the IL-22 cytokine concentration (primary human T-cells; [1]) of the same substance?
Answer: 0 pg/mL

Question: What about the TNF-α cytokine concentration (primary human T-cells; [1]) of the same substance?
Answer: 0 pg/mL

Question: What about the IL-1 cytokine concentration (primary human T-cells; [2]) of the same substance?
Answer: 0 pg/mL

Question: What about the IL-2 cytokine concentration (primary human T-cells; [2]) of the same substance?
Answer: 115.73 pg/mL

Question: What about the IL-4 cytokine concentration (primary human T-cells; [2]) of the same substance?
Answer: 73.19 pg/mL

Question: What about the IL-5 cytokine concentration (primary human T-cells; [2]) of the same substance?
Answer: 0 pg/mL

Question: What about the IL-6 cytokine concentration (primary human T-cells; [2]) of the same substance?
Answer: 113.86 pg/mL

Question: And the IL-9 cytokine concentration (primary human T-cells; [2])?
Answer: 10.84 pg/mL

Question: What about the IL-10 cytokine concentration (primary human T-cells; [2]) of the same substance?
Answer: 147.54 pg/mL

Question: What about the IL-12p70 cytokine concentration (primary human T-cells; [2]) of the same substance?
Answer: 0 pg/mL

Question: And the IL-13 cytokine concentration (primary human T-cells; [2])?
Answer: 0 pg/mL

Question: And the IL-17 cytokine concentration (primary human T-cells; [2])?
Answer: 65.17 pg/mL

Question: What about the IL-22 cytokine concentration (primary human T-cells; [2]) of the same substance?
Answer: 0 pg/mL

Question: What about the INF-α cytokine concentration (primary human T-cells; [2]) of the same substance?
Answer: 0 pg/mL

Question: And the TNF-α cytokine concentration (primary human T-cells; [2])?
Answer: 50.36 pg/mL

Question: And the IL-1 cytokine concentration (primary human T-cells; [3])?
Answer: 558.46 pg/mL

Question: And the IL-2 cytokine concentration (primary human T-cells; [3])?
Answer: 2092.22 pg/mL

Question: What about the IL-4 cytokine concentration (primary human T-cells; [3]) of the same substance?
Answer: 0 pg/mL

Question: What about the IL-5 cytokine concentration (primary human T-cells; [3]) of the same substance?
Answer: 354.06 pg/mL

Question: What about the IL-6 cytokine concentration (primary human T-cells; [3]) of the same substance?
Answer: 1185.87 pg/mL

Question: What about the IL-9 cytokine concentration (primary human T-cells; [3]) of the same substance?
Answer: 248.66 pg/mL

Question: And the IL-10 cytokine concentration (primary human T-cells; [3])?
Answer: 872.88 pg/mL

Question: And the IL-12p70 cytokine concentration (primary human T-cells; [3])?
Answer: 0 pg/mL

Question: And the IL-13 cytokine concentration (primary human T-cells; [3])?
Answer: 1081.09 pg/mL

Question: What about the IL-17 cytokine concentration (primary human T-cells; [3]) of the same substance?
Answer: 1069.51 pg/mL

Question: What about the IL-22 cytokine concentration (primary human T-cells; [3]) of the same substance?
Answer: 0 pg/mL

Question: And the INF-α cytokine concentration (primary human T-cells; [3])?
Answer: 7456.27 pg/mL

Question: And the TNF-α cytokine concentration (primary human T-cells; [3])?
Answer: 2706.11 pg/mL

Question: And the ear thickness (C57BL/6 mice)?
Answer: reduction

Question: And the “inflammatory infiltrate in histology” value (C57BL/6 mice)?
Answer: reduced

Question: And the number of petechiae (C57BL/6 mice)?
Answer: reduced number

Question: And the “concentrations of TNF-α and IL-17 in the serum” value (Balb/c mice)?
Answer: reduced

Question: And the “mRNA expression of IL-17, IFN-γ, IL-23, IL-36 and IL-22 in lesional skin” value (Balb/c mice)?
Answer: reduced

Question: What about the “size of the rete ridges” value (Balb/c mice; compared to vehicle control) of the same substance?
Answer: decreased

Question: And the clinical score (Balb/c mice; day 9)?
Answer: reduced

From patent US10954269B2, “Anti-inflammatory tripeptides” (Dr. August Wolff Gmbh & Co. KG Arzneimittel, priority 2013, dated 2021)
